Our source for the TGI and GI50 values is PubChem BioAssay (NCI).

What all share (test): growth of human tumour cells (NCI), 48 h
The subject of assay [1] is OVCAR-5 ovarian.
Assay [2] concerns SK-OV-3 ovarian.
The test system of assay [3] is LOX IMVI melanoma.
Assay [4] has as its system EKVX NSCLC.
Assay [5] relates to SN12C renal.
Assay [6] has as its system MALME-3M melanoma.
Assay [7] deals with SF-295 CNS.
The test system of assay [8] is HOP-92 NSCLC.
Assay [9] deals with T-47D breast.

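Five compound concentrations were applied to cells in 96-well plates for 48 hours; endpoints were derived by simple linear interpolation of the resulting dose-response curve. Abbreviation: GI50, concentration required for 50% inhibition of growth. TGI: concentration producing complete growth inhibition.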

`O=c1[nH]c(=O)n(C2CC(O)C(CO)O2)cc1C#Cc1ccc(F)cc1` (configuration not stated): the TGI in [1], in assay [2], in assay [3], in assay [4], in [5] and in assay [6] was > 100 µM throughout. In [7], the TGI is > 100 µM.

Consider `OC12c3ccccc3C3CCC4(OCCO4)C3C1c1ccccc12` (configuration not stated), for which the TGI in assay [1], in [2], in [3], in assay [4], in [5] and in assay [6] was > 100 µM in each case. In assay [7], the TGI is > 100 µM.

As to `COc1ccc2[nH]c3c(C)cc([N+](=O)[O-])c(C)c3c2c1`, the TGI in assay [2] is 78.3 µM; in [4], > 100 µM; in assay [5], > 100 µM; in assay [8], 80.6 µM; in [6], 73.4 µM; in assay [7], > 100 µM.

`CC1(C)CC(=O)c2c(nc3c(ccc4ccccc43)c2-c2ccc(NC(=O)CCCCC(=O)Nc3ccc(-c4c5c(nc6c4ccc4ccccc46)CC(C)(C)CC5=O)cc3)cc2)C1`: the TGI in assay [1] is > 100 µM; in [2], > 100 µM; in [3] it was 33.3 µM; in [4] it was 67.5 µM; in [5], 92.8 µM; in assay [9] it was > 100 µM. Further, the TGI in assay [7] was determined as 41.6 µM.

As for `COc1ccc2c(c1)c(=O)c1c(NCCN(C)C)ccc3nnn2c31`, the TGI amounted to 19.6 µM in assay [1]; 23.9 µM in assay [2]; 2.9 µM in assay [3]; 17.9 µM in [4]; 19.7 µM in [5]; 10.8 µM in assay [8]. The TGI was determined as 17.2 µM in assay [6] and 13.9 µM in [7].

For the compound `CC(CN(C)C)C(=O)c1ccccc1` (configuration not stated), the TGI was 96.1 µM in assay [1]; 31.7 µM in assay [3]; > 79 µM in assay [4]; 33.8 µM in assay [5]; 6.87 µM in assay [8]; > 61.1 µM in assay [6]. Further, the TGI in assay [7] was > 100 µM.

As to `C#CC1(O)CCC2[C@@H]3CCc4cc(Oc5nc(F)nc(-c6c7ccccc7cn6C)n5)ccc4C3CC[C@@]21C` (some centres not stated), the TGI in assay [1], in assay [2], in assay [3], in [4], in [5] and in assay [8] was > 100 µM throughout. Also, the TGI in [6] and in assay [7] was > 100 µM each time.

Consider `COc1ccc(C2C3CCCC(C3=O)C(c3ccc(OC)cc3)N2N=O)cc1` (configuration not stated), for which the TGI in assay [1] was > 100 µM; in assay [2] it was > 87.6 µM; in assay [3], 32.5 µM; in [4] it was 99.6 µM; in [5] it was 39.2 µM; in [8], > 100 µM. Moreover, the figures for the TGI in assay [6] and in assay [7] were 20 µM and 45.8 µM, respectively.

`O=C(OC/C=C1C=C(OC(=O)c2ccccc2)/C(=N/N(C(=O)c2ccccc2)c2ccccc2)O\1)c1ccccc1`: the GI50 in assay [1] was 15.9 µM. The TGI is 29.5 µM in assay [1]; 23.6 µM in assay [2]; 14.1 µM in [3]; 22.7 µM in assay [5]; 21.4 µM in assay [7].

`COc1ccc(C(=O)N/N=C/c2c(C)n(C)n(-c3ccccc3)c2=O)cc1`: the TGI in assay [2], in assay [3], in [4], in assay [5], in [8] and in [6] was > 100 µM each time. The TGI in assay [7] is > 100 µM.

Regarding `CCn1c2c(c3ccccc31)C(c1ccccc1)CC1C(=O)N(c3ccccc3)C(=O)C21` (configuration not stated), the TGI is > 100 µM in assay [1]; > 100 µM in [2]; > 100 µM in [3]; > 100 µM in assay [4]; > 100 µM in assay [5]; 75.7 µM in [8]. The results for the TGI in [6] and in assay [7] were 52.4 µM and > 100 µM, respectively.

For the compound `COc1ccc2nc3n(c2c1)C(=O)c1ccccc1-3`, the TGI in assay [1], in assay [2], in [4], in [5], in assay [8] and in [6] was > 100 µM in each case. Moreover, the TGI in assay [7] is > 100 µM.

As to `CCCN(CCC)c1c([N+](=O)[O-])cc(C(=O)N(CCO)CCO)cc1[N+](=O)[O-]`, the TGI in [1], in assay [2], in assay [4], in [5], in [6] and in [7] was > 100 µM in each case.
